{"source": "patent US10420831B2", "about": "“Inactivation of viruses by delipidation” (priority 2016, dated 2019)", "key": {"[1]": {"system": "human influenza virus H1N1 A/WSN/33 strain", "format": "cell-based"}, "[2]": {"system": "human influenza virus H1N1 A/WSN/33 strain", "test": "Hemagglutination (HA) activity of treated IFV with chicken red blood cells", "experimental": "Hemagglutination (HA) activity is determined as follows. Freshly isolated chicken blood is washed three times with PBS, and the red blood cells (RBC) are resuspended in PBS at a concentration of 1%. Virus dilutions (50 μL) are made in PBS and mixed with 50 μL of the RBC suspension. The mixture is added to individual wells in a 96-well plate and the RBC are allowed to settle for 45 minutes. The wells are judged to be HA negative (i.e. no agglutination of RBC) if a dot or pellet of RBC is present, and a well is judged to be positive if a smooth suspension of RBC is present.\nIn addition to MBCD, another lipid solvent, diisopropyl ether (DIPE) is used to delipidate IFV. […] After a brief centrifugation at 2,000×g for 3 minutes, visible solvent is removed, and the aqueous materials are left to dry in a fume hood for 20 minutes. The samples are then centrifuged at 200,000×g for 30 minutes to recover virus particles."}}, "note": "Read-outs that look alike come from different tables or passages of the source.", "data": [{"smiles": "CC(C)OC(C)C", "note": "[DIPE, diisopropyl ether]", "values": [{"measurement": "IFV infectivity reduced, compared to the mock-treatment", "setting": "[1]; 12% DIPE, 37° C., 30 minutes, […]", "value": 32, "unit": "fold"}, {"measurement": "PFU/mL", "setting": "[1]; IFV, 2% DIPE, 37° C., 30 minutes", "value": "1.2 × 10^8 PFU/mL"}, {"measurement": "PFU/mL", "setting": "[1]; IFV, 4% DIPE, 37° C., 30 minutes", "value": "1.4 × 10^8 PFU/mL"}, {"measurement": "PFU/mL", "setting": "[1]; IFV, 8% DIPE, 37° C., 30 minutes", "value": "9.0 × 10^7 PFU/mL"}, {"measurement": "decrease in infectivity in vitro", "setting": "[1]; IFV, 10% DIPE, 30 minute treatment", "value": "~120", "unit": "fold"}, {"measurement": "PFU/mL", "setting": "[1]; IFV, 10% DIPE, end-over-end rotation at 37° C. for 30 minutes", "value": "1.0 × 10^5 PFU/mL"}, {"measurement": "PFU/mL", "setting": "[1]; IFV, 12% DIPE, 37° C., 30 minutes", "value": "2.8 × 10^7 PFU/mL"}, {"measurement": "HA units", "setting": "[2]; 2% DIPE, 37° C., 30 minutes", "value": 32, "unit": "HA units"}, {"measurement": "HA units", "setting": "[2]; 4% DIPE, 37° C., 30 minutes", "value": 32, "unit": "HA units"}, {"measurement": "HA units", "setting": "[2]; 8% DIPE, 37° C., 30 minutes", "value": 32, "unit": "HA units"}, {"measurement": "effect on HA activity (in words)", "setting": "[2]; 10% DIPE, 30 minutes", "value": "measurably reduced"}, {"measurement": "HA units", "setting": "[2]; 10% DIPE, end-over-end rotation at 37° C. for 30 minutes", "value": 16, "unit": "HA units"}, {"measurement": "HA units", "setting": "[2]; 12% DIPE, 37° C., 30 minutes", "value": 16, "unit": "HA units"}]}]}
